From ChEMBL document CHEMBL4831525, “Design, synthesis and biological evaluation of quinazoline derivatives as potent and selective FGFR4 inhibitors” (Eur J Med Chem, 2021)
pIC50: −log10 of the molar value. Active and inactive are the calls of the source. The calls are words filed in the database; no cut-off is given here.

How the values were obtained:
Huh-7 = assay: cells; conditions: Homo sapiens, Huh-7, 72 h
Description: Antiproliferative activity against human Huh-7 cells assessed as inhibition of cell proliferation measured after 72 hrs by SRB assay

[1] = target: Fibroblast growth factor receptor 2 (Homo sapiens, UniProt P21802); assay: Inhibition of FGFR2 (unknown origin)
Fibroblast growth factor receptor 2, sequence (P21802 whole entry): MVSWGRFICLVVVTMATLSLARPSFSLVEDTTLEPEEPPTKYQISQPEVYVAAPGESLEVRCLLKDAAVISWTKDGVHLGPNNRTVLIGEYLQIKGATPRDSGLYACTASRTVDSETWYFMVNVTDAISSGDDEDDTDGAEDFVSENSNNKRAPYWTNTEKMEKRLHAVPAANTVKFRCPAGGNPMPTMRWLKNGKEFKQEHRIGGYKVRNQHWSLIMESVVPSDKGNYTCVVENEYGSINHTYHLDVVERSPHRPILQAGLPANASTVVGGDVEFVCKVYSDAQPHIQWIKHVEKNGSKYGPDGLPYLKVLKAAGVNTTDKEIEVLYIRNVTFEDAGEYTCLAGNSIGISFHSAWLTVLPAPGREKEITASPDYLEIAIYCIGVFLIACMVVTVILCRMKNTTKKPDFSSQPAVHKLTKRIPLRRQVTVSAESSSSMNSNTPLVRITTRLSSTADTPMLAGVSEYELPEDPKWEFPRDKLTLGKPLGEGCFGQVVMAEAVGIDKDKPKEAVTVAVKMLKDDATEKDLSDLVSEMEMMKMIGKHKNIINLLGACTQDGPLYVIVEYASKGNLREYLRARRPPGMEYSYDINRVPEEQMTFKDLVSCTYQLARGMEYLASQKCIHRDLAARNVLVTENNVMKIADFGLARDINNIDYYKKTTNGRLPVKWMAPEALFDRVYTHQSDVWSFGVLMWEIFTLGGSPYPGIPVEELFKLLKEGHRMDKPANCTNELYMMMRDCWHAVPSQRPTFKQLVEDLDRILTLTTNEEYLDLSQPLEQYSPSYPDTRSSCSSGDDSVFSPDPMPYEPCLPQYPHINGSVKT

[2] = target: Fibroblast growth factor receptor 3 (Homo sapiens, UniProt P22607); assay: Inhibition of FGFR3 (unknown origin)
Fibroblast growth factor receptor 3, sequence (P22607 whole entry): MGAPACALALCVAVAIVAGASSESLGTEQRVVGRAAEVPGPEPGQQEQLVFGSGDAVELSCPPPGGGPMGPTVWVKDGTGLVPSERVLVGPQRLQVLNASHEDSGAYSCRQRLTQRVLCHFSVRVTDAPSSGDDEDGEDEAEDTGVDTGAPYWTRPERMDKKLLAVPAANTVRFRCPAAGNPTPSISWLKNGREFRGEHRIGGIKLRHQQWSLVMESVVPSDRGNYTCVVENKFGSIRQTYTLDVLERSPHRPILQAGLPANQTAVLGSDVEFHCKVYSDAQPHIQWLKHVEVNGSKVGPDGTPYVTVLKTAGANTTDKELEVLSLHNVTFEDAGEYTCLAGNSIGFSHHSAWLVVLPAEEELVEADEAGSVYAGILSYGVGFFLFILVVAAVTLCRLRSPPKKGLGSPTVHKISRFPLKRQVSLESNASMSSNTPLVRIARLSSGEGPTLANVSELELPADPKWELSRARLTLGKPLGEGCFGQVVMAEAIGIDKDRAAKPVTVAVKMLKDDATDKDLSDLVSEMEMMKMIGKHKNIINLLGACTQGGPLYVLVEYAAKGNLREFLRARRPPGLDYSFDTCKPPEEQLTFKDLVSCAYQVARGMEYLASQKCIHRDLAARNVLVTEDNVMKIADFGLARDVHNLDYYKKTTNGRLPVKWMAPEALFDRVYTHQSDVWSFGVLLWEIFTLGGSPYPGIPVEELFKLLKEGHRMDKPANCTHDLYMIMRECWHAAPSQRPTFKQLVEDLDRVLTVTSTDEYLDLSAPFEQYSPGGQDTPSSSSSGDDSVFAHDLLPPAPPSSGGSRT

[3] = target: T1, Fibroblast growth factor receptor 4 (Homo sapiens, UniProt P22455)
Target sequence in this assay (P22455 whole entry): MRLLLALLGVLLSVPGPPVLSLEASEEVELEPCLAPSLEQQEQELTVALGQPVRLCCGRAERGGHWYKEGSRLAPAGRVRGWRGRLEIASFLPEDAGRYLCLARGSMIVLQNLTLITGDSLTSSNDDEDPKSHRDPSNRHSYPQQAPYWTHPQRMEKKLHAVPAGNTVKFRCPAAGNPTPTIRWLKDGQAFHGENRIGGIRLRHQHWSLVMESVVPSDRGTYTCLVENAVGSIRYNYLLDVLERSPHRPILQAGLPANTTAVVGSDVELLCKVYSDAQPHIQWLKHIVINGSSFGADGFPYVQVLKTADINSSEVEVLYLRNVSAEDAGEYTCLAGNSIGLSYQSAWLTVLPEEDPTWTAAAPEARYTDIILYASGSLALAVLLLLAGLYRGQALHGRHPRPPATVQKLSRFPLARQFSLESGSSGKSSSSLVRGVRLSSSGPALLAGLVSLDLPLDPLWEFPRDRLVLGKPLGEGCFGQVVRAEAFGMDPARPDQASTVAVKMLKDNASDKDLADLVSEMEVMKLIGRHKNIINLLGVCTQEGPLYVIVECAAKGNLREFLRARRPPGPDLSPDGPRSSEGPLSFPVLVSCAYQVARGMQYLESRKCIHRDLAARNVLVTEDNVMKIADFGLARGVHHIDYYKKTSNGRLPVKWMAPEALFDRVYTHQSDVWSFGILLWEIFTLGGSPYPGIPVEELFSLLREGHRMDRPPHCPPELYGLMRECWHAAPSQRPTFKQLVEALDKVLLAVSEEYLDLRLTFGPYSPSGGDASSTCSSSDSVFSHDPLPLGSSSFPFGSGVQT
Description: Inhibition of FGFR4 (unknown origin)

[4] = Stability of the compound in rat liver microsomes assessed as parent compound remaining incubated for 60 mins in presence of NADPH by LC-MS analysis; assay type: ADME, Microsome; conditions: read-out: Stability
Hep 3B2 = assay: Induction of apoptosis in human Hep3B cells assessed as increase in cleaved PARP level at 3 to 20 uM by Western blot analysis; assay type: functional, cell-based; conditions: dose 3-20 µM
[5] = target: Fibroblast growth factor receptor 1 (Homo sapiens, UniProt P11362); assay: Inhibition of FGFR1 (unknown origin)
Fibroblast growth factor receptor 1, sequence (P11362 whole entry, the tested form may be a part): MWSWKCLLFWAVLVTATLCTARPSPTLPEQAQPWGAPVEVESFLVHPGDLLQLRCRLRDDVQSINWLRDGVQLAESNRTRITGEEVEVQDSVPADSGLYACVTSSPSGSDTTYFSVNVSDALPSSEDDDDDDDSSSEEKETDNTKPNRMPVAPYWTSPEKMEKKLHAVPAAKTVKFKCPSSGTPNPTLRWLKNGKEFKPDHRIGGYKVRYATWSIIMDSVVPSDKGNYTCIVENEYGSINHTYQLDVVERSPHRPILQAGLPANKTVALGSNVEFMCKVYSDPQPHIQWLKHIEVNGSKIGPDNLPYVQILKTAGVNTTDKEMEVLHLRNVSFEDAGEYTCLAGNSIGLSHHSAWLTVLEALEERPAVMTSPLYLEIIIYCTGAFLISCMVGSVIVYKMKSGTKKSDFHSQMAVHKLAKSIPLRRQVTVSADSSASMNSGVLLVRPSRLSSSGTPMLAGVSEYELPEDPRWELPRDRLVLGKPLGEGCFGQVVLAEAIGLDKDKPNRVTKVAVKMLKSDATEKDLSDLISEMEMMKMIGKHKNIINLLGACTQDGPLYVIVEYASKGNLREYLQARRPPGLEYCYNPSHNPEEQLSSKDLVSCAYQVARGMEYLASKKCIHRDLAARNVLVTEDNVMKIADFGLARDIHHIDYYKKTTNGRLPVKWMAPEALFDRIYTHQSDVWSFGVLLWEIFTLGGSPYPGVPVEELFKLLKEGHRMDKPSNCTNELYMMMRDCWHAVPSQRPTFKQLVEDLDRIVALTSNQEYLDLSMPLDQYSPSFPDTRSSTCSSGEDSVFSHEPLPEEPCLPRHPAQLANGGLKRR

[6] = target: T1, Fibroblast growth factor receptor 4; assay: Inhibition of N-terminal GST fusion tagged human FGFR4 cytoplasmic domain (460 to 802 end residues) expressed in baculovirus expression system at 1 nM preincubated for 10 mins followed by substrate addition and further incubated for 30 mins in presence of ATP at Km concentration by caliper mobility shift assay relative to control; conditions: time 40.0 min
Target sequence in this assay (P22455 22-802 limits assumed): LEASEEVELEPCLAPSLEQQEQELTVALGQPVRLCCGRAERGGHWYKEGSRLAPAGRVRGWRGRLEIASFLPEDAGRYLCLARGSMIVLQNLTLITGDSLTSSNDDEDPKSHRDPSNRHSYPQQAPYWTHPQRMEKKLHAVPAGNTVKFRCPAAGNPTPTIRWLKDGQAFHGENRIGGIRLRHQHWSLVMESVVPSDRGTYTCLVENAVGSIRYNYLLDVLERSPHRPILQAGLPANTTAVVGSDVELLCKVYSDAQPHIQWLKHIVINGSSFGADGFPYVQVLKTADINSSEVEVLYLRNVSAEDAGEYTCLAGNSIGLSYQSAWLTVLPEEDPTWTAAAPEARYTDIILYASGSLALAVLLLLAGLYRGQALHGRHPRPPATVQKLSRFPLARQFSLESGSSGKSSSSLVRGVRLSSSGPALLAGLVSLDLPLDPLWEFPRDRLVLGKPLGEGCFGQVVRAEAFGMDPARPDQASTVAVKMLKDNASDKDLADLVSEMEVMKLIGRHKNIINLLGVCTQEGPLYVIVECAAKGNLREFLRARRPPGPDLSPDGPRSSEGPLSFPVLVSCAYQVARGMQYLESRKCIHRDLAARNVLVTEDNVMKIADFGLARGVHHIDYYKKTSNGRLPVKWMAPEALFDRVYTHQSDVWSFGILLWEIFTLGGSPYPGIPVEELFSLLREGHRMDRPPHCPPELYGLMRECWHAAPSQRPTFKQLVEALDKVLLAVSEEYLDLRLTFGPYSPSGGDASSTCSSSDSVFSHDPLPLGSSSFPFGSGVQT

[7] = Stability of the compound in rat plasma assessed as parent compound remaining incubated for 60 mins; assay type: ADME, cell-free; conditions: read-out: Stability

## C=CC(=O)Nc1cc(CCN2CCCC2CN2CCCC2)cc(C)c1Nc1ncc2cc(-c3c(Cl)c(OC)cc(OC)c3Cl)ccc2n1 (centres undefined)
Huh-7
  pIC50: 5.45

## C=CC(=O)N[C@H]1CCOC[C@H]1Nc1ncc2cc(-c3c(Cl)c(OC)cc(OC)c3Cl)ccc2n1 [FISOGATINIB]
[1]
  pIC50: 5.92
[2]
  pIC50: 5.66
[3]
  pIC50: 8.30

## C=CC(=O)Nc1cc(CCN2CCCC2)cc(C)c1Nc1ncc2cc(-c3c(Cl)c(OC)cc(OC)c3Cl)ccc2n1
Huh-7
  pIC50: 5.34

## C=CC(=O)Nc1cccc(C)c1Nc1ncc2cc(-c3c(Cl)c(OC)cc(OC)c3Cl)ccc2n1
[4]
  remaining at 1 h: 15%
Hep 3B2
  Activity: Active
Huh-7
  pIC50: 6.03

## C=CC(=O)Nc1cc(S(C)(=O)=O)ccc1Nc1ncc2cc(-c3c(Cl)c(OC)cc(OC)c3Cl)ccc2n1
[5]
  pIC50: 7.55
[1]
  pIC50: 7.82
[2]
  pIC50: 6.99
Huh-7
  pIC50: 5.67

## C=CC(=O)Nc1cc(S(=O)(=O)NC(=O)C=C)ccc1Nc1ncc2cc(-c3c(Cl)c(OC)cc(OC)c3Cl)ccc2n1
Huh-7
  pIC50: 5.32

## C=CC(=O)Nc1cc(CCCN(C)C)cc(C)c1Nc1ncc2cc(-c3c(Cl)c(OC)cc(OC)c3Cl)ccc2n1
[6]
  inhibition: 55%
Huh-7
  pIC50: 5.65

## C=CC(=O)Nc1cc(CCN2CCOCC2)cc(C)c1Nc1ncc2cc(-c3c(Cl)c(OC)cc(OC)c3Cl)ccc2n1
Huh-7
  pIC50: 4.88

## C=CC(=O)Nc1cc(CCN2CCc3ccccc3C2)cc(C)c1Nc1ncc2cc(-c3c(Cl)c(OC)cc(OC)c3Cl)ccc2n1
Huh-7
  pIC50: 5.35

## C=CC(=O)Nc1cc(SC)ccc1Nc1ncc2cc(-c3c(Cl)c(OC)cc(OC)c3Cl)ccc2n1
[5]
  pIC50: 7.41
[1]
  pIC50: 7.62
[2]
  pIC50: 7.10
Huh-7
  pIC50: 6.03

## C=CC(=O)Nc1cc(CCN2CCN(C3COC3)CC2)cc(C)c1Nc1ncc2cc(-c3c(Cl)c(OC)cc(OC)c3Cl)ccc2n1
Huh-7
  pIC50: 5.07

## C=CC(=O)Nc1cc(CCN2CCN(C)CC2)cc(C)c1Nc1ncc2cc(-c3c(Cl)c(OC)cc(OC)c3Cl)ccc2n1
Huh-7
  pIC50: 5.15

## C=CC(=O)Nc1cc(CCN(CC)CCC)cc(C)c1Nc1ncc2cc(-c3c(Cl)c(OC)cc(OC)c3Cl)ccc2n1
Huh-7
  pIC50: 5.36

## C=CC(=O)Nc1cc(CCN2CCC(NC(=O)OC(C)(C)C)CC2)cc(C)c1Nc1ncc2cc(-c3c(Cl)c(OC)cc(OC)c3Cl)ccc2n1
Huh-7
  pIC50: 5.35

## C=CC(=O)Nc1cc(S(N)(=O)=O)cc(C)c1Nc1ncc2cc(-c3c(Cl)c(OC)cc(OC)c3Cl)ccc2n1
[4]
  remaining at 1 h: 50%
[7]
  remaining at 1 h: 80%
[5]
  pIC50: 6.10
[1]
  pIC50: 6.47
[2]
  pIC50: 5.41
Hep 3B2
  Activity: Active
Huh-7
  pIC50: 5.78

## C=CC(=O)Nc1cc(S(C)(=O)=O)cc(C)c1Nc1ncc2cc(-c3c(Cl)c(OC)cc(OC)c3Cl)ccc2n1
[5]
  pIC50: 6.05
[1]
  pIC50: 6.42
[2]
  pIC50: 5.41
Huh-7
  pIC50: 5.71

## C=CC(=O)Nc1cc(CCN2CCN(CCOC)CC2)cc(C)c1Nc1ncc2cc(-c3c(Cl)c(OC)cc(OC)c3Cl)ccc2n1
Huh-7
  pIC50: 5.38

## C=CC(=O)Nc1cc(CCO)cc(C)c1Nc1ncc2cc(-c3c(Cl)c(OC)cc(OC)c3Cl)ccc2n1
Huh-7
  pIC50: 5.62

## C=CC(=O)Nc1cc(CCCN2CCCC2)cc(C)c1Nc1ncc2cc(-c3c(Cl)c(OC)cc(OC)c3Cl)ccc2n1
Huh-7
  pIC50: 5.37
